# Test results reported in ChEMBL document CHEMBL3508693 (2016).
# Experiments:
# [1] = Apparent terminal half-life (0-168h) of unlabeled aliskiren hemifumarate following single intravenous administration of aliskiren hemifumarate at 1 mg.Kg-1 level in marmoset; type: ADME, organism-based, Callithrix jacchus; conditions: plasma
# [2] = Effect of 2 week oral dosing of aliskiren hemifumarate at 100 mg.Kg-1 level on plasma creatinine level in male Callithrix jacchus; type: toxicity, organism-based; conditions: marmoset, 336 h
# [3] = Tmax of aliskiren hemifumarate following 8 day once-daily dosing of SPP100B oral solution at 160 mg level studied on day 8 in men; type: ADME, organism-based; conditions: male, human, plasma
# [4] = Cmax/dose of aliskiren hemifumarate following 4 week oral dietary dosing of aliskiren hemifumarate at 1000 mg.Kg-1 level in female mouse; type: ADME, organism-based, CB6F1-TGrasH2; conditions: in vivo, 672 h
# [5] = AUC (0-24h)/dose of aliskiren hemifumarate following 4 week oral dietary dosing of aliskiren hemifumarate at 2000 mg.Kg-1 level in female mouse; type: ADME, organism-based, CB6F1-TGrasH2, Plasma; conditions: in vivo
# [6] = Cmax/dose of aliskiren hemifumarate following 4 week oral dietary dosing of aliskiren hemifumarate at 1000 mg.Kg-1 level in male mouse; type: ADME, organism-based, CB6F1-TGrasH2; conditions: in vivo, 672 h
# [7] = t1/2 of aliskiren hemifumarate following 2 week oral dosing of aliskiren hemifumarate at 50 mg.Kg-1 level studied on day 1 in male Callithrix jacchus; type: ADME, organism-based; conditions: marmoset, plasma
# [8] = Tmax of aliskiren hemifumarate following 2 week oral dosing of aliskiren hemifumarate at 50 mg.Kg-1 level studied on day 14 in male Callithrix jacchus; type: ADME, organism-based; conditions: marmoset, plasma
# [9] = AUC of aliskiren hemifumarate following 8 day once-daily dosing of SPP100B oral solution at 160 mg level studied on day 8 in men; type: ADME, organism-based; conditions: male, human, plasma
# [10] = Tmax of aliskiren hemifumarate following repeated oral administration of [14C] aliskiren hemifumarate at 100 mg.Kg-1 level studied after 2h of dosing on day 10 in rat; type: ADME, organism-based, Albino HAN:WIST; conditions: in vivo
# [11] = Effect of 2 week oral dosing of aliskiren hemifumarate at 100 mg.Kg-1 level on plasma creatinine level in female Callithrix jacchus; type: toxicity, organism-based; conditions: marmoset, 336 h
# [12] = Cmax of aliskiren hemifumarate following repeated oral administration of [14C] aliskiren hemifumarate at 100 mg.Kg-1 level studied after 2h of dosing on day 10 in rat; type: ADME, organism-based, Albino HAN:WIST; conditions: in vivo, read-out: Cmax(10)
# [13] = Effect of 4 week oral dietary dosing of aliskiren hemifumarate at 2000 mg.Kg-1 level on histopathology of corpora lutea in female mouse; type: toxicity, organism-based, CB6F1-TGrasH2, Corpus luteum; conditions: in vivo, 672 h
# [14] = Cmax/dose of aliskiren hemifumarate following 4 week oral dietary dosing of aliskiren hemifumarate at 500 mg.Kg-1 level in male mouse; type: ADME, organism-based, CB6F1-TGrasH2; conditions: in vivo, 672 h
# [15] = AUCspec of aliskiren hemifumarate following 2 week oral dosing of aliskiren hemifumarate at 10 mg.Kg-1 level studied on day 14 in female Callithrix jacchus; type: ADME, organism-based, Plasma; conditions: marmoset, in vivo, 336 h
# [16] = AUC (0-96h) of unlabeled aliskiren hemifumarate following intravenous administration of aliskiren hemifumarate at 10 mg.Kg-1 level in rat; type: ADME, organism-based; conditions: Albino HAN:WIST, plasma
# [17] = Cmax of aliskiren hemifumarate following 8 day once-daily dosing of SPP100B oral solution at 40 mg level studied on day 8 in men; type: ADME, organism-based; conditions: male, human, plasma
# [18] = Cmin of aliskiren hemifumarate following repeated oral administration of [14C] aliskiren hemifumarate at 100 mg.Kg-1 level studied after first dosing in rat; type: ADME, organism-based, Albino HAN:WIST; conditions: in vivo
# [19] = AUC of aliskiren hemifumarate following 8 day once-daily dosing of SPP100B oral solution at 640 mg level studied on day 8 in men; type: ADME, organism-based; conditions: male, human, plasma
# [20] = Cmax of aliskiren hemifumarate following 2 week oral dosing of aliskiren hemifumarate at 100 mg.Kg-1 level studied on day 1 in female Callithrix jacchus; type: ADME, organism-based; conditions: marmoset, plasma
# [21] = AUC (0-24h)/dose of aliskiren hemifumarate following 4 week oral dietary dosing of aliskiren hemifumarate at 1500 mg.Kg-1 level in female mouse; type: ADME, organism-based, CB6F1-TGrasH2, Plasma; conditions: in vivo
# [22] = t1/2 of aliskiren hemifumarate following 2 week oral dosing of aliskiren hemifumarate at 100 mg.Kg-1 level studied on day 1 in male Callithrix jacchus; type: ADME, organism-based; conditions: marmoset, plasma
# [23] = Effect of 4 week oral dietary dosing of aliskiren hemifumarate at 2000 mg.Kg-1 level on density of uterine gland in female mouse; type: toxicity, organism-based, CB6F1-TGrasH2, Endometrial gland; conditions: in vivo, 672 h
# [24] = Effect of 4 week oral dietary dosing of aliskiren hemifumarate at 2000 mg.Kg-1 level on ovarian follicular atresia in female mouse; type: toxicity, organism-based, CB6F1-TGrasH2, Ovarian follicle; conditions: in vivo, 672 h
# [25] = AUC (0-24h)/dose of aliskiren hemifumarate following 4 week oral dietary dosing of aliskiren hemifumarate at 1000 mg.Kg-1 level in male mouse; type: ADME, organism-based, CB6F1-TGrasH2, Plasma; conditions: in vivo
# [26] = % of radioactivity recovered as aliskiren in plasma following oral administration of [14C] aliskiren hemifumarate at 100 mg.Kg-1 level in rat; type: ADME, organism-based, Albino HAN:WIST; conditions: in vivo
# [27] = Mean excretion of radioactivity (48-72h) in urine and faeces following single oral dose of 500 mg.Kg-1 [14C] aliskiren hemifumarate in mouse; type: ADME, organism-based, TgRasH2, Urine/Feces; conditions: in vivo
# [28] = Excretion of radioactivity (48-72h) in faeces following single intravenous dose of 10 mg.Kg-1 [14C] aliskiren hemifumarate in mouse; type: ADME, organism-based, TgRasH2, Feces; conditions: in vivo
# [29] = Excretion (24h) of radioactivity in faeces following oral administration of [14C] aliskiren hemifumarate at 100 mg.Kg-1 level in rat; type: ADME, organism-based, Lister-Hooded, Feces; conditions: in vivo
# [30] = Concentration of radioactivity in the colon wall following repeated oral administration of [14C] aliskiren hemifumarate at 100 mg.Kg-1 level studied at 2h after 10th dose in rat; type: ADME, organism-based, Albino HAN:WIST; conditions: in vivo
# [31] = Faecal elimination of aliskiren following single intravenous dose of [14C] aliskiren hemifumarate at 10 mg.Kg-1 level in mouse; type: ADME, organism-based, TgRasH2, Feces; conditions: in vivo
# [32] = Excretion of radioactivity (24-48h) in faeces following single oral dose of 100 mg.Kg-1 [14C] aliskiren hemifumarate in rat; type: ADME, organism-based, Albino HAN:WIST, Feces; conditions: in vivo
# [33] = Mean excretion of radioactivity (0-72h) in urine and faeces following single intravenous dose of 10 mg.Kg-1 [14C] aliskiren hemifumarate in mouse; type: ADME, organism-based, TgRasH2, Urine/Feces; conditions: in vivo
# [34] = Excretion (24h) of radioactivity in urine following intravenous administration of [14C] aliskiren hemifumarate at 10 mg.Kg-1 level in rat; type: ADME, organism-based, Lister-Hooded; conditions: in vivo
# [35] = Total excretion of radioactivity following intravenous administration of [14C] aliskiren hemifumarate at 1 mg.Kg-1 level in marmoset; type: ADME, organism-based, Callithrix jacchus, Urine/Feces; conditions: in vivo
# [36] = Mean excretion of radioactivity (24-48h) in urine and faeces following single intravenous dose of 10 mg.Kg-1 [14C] aliskiren hemifumarate in mouse; type: ADME, organism-based, TgRasH2, Urine/Feces; conditions: in vivo
# [37] = Tmax of [14C] aliskiren hemifumarate following single oral dose of [14C] aliskiren hemifumarate at 500 mg.Kg-1 level in mouse; type: ADME, organism-based, TgRasH2, Plasma; conditions: in vivo
# [38] = Excretion (0-24h) of radioactivity in urine following oral administration of [14C] aliskiren hemifumarate at 3 mg.Kg-1 level in marmoset; type: ADME, organism-based, Callithrix jacchus; conditions: in vivo
# [39] = Excretion of radioactivity (48-72h) in faeces following single oral dose of 500 mg.Kg-1 [14C] aliskiren hemifumarate in mouse; type: ADME, organism-based, TgRasH2, Feces; conditions: in vivo
# [40] = % of radioactivity (24h) recovered in bile following single intravenous administration of 10 mg.Kg-1 [14C] aliskiren hemifumarate in male rat; type: ADME, organism-based, HAN:WIST(SPF); conditions: in vivo
# [41] = Tmax (0-168h) of total radioactivity following single oral administration of [14C] aliskiren hemifumarate at 3 mg.Kg-1 level in marmoset; type: ADME, organism-based, Callithrix jacchus, Plasma; conditions: in vivo
# [42] = Excretion of radioactivity (24-48h) in urine following single oral dose of 500 mg.Kg-1 [14C] aliskiren hemifumarate in mouse; type: ADME, organism-based, TgRasH2; conditions: in vivo
smiles,measurement,setting,value
COCCCOc1cc(C[C@@H](C[C@H](N)[C@@H](O)C[C@H](C(=O)NCC(C)(C)C(N)=O)C(C)C)C(C)C)ccc1OC.COCCCOc1cc(C[C@@H](C[C@H](N)[C@@H](O)C[C@H](C(=O)NCC(C)(C)C(N)=O)C(C)C)C(C)C)ccc1OC.O=C(O)/C=C/C(=O)O [ALISKIREN FUMARATE],half-life,[1],2160 min
same,CREAT_CHANGE_BY,[2],130%
same,Tmax,[3],4.1 h
same,Cmax normalised,[4],0.167 (ng/mL)/(mg/kg/day)
same,AUC normalised,[5],5.88 ((ng/mL).hours)/(mg/kg/day)
same,Cmax normalised,[6],0.879 (ng/mL)/(mg/kg/day)
same,half-life,[7],442 min
same,Tmax,[8],2 h
same,AUC at 192 h,[9],363 ng·h/mL
same,Tmax(10),[10],218 h
same,CREAT_CHANGE_BY,[11],130%
same,Cmax,[12],357 nM
same,Change in corpora lutea,[13],OUTCOME = Absence of corpora lutea. No animals died during the study.
same,Cmax normalised,[14],0.624 (ng/mL)/(mg/kg/day)
same,AUC normalised,[15],2.9 ((ug.h.ml-1)/(mg/kg)
same,AUC(0-t) at 96 h,[16],12.6 µM·h
same,Cmax,[17],6.2 ng/mL
same,Cmin(1),[18],3.47 nmol/L
same,AUC at 192 h,[19],2970 ng·h/mL
same,Cmax,[20],7940 ng/mL
same,AUC normalised,[21],3.65 ((ng/mL).hours)/(mg/kg/day)
same,half-life,[22],768 min
same,Change in density of uterine gland,[23],OUTCOME = Decreased. No animals died during the study.
same,Change in ovarian follicular atresia,[24],OUTCOME = Increased. No animals died during the study.
same,AUC normalised,[25],4.82 ((ng/mL).hours)/(mg/kg/day)
COCCCOc1cc(C[C@@H](C[C@H](N)[C@@H](O)C[C@H](C(=O)NCC(C)(C)C(N)=O)C(C)C)C(C)C)ccc1OC,Compound recovery,[26],> 40%
COCCCOc1cc(C[C@@H](C[C@H](N)[C@@H](O)C[C@H](C(=O)NCC([14CH3])([14CH3])C(N)=O)C(C)C)C(C)C)ccc1OC.O=C(O)/C=C/C(=O)O,Radiolabel recovery,[27],9.33%
same,Radiolabel recovery,[28],0.74%
same,Radiolabel recovery,[29],86%
same,Radiolabel recovery,[30],"OUTCOME = Observed, VALUE = Highest radioactivity concentration was observed"
same,Radiolabel recovery,[31],"OUTCOME = Observed, VALUE = Elimination of aliskiren occurred mainly via the biliary or faecal route"
same,Radiolabel recovery,[32],0.68%
same,Radiolabel recovery,[33],93.08%
same,Radiolabel recovery,[34],10%
same,Radiolabel recovery,[35],83.1%
same,Radiolabel recovery,[36],7.51%
same,Tmax,[37],1 h
same,Radiolabel recovery,[38],2.22%
same,Radiolabel recovery,[39],0.16%
same,Radiolabel recovery,[40],70%
same,Tmax,[41],2 h
same,Radiolabel recovery,[42],1.02%
